Row | SMILES | melting point
1 | O=C(NCCCCCCCCn1ccnc1)c1ccc(Cl)s1 | 95 to 97 °C
2 | Cc1nn(-c2ccccn2)cc1COc1ccc(COc2ncccc2CC(=O)O)cc1 | 150 to 151 °C
3 | CCC(O)(CC)c1ccc(-c2cccc(OCc3ccc(CO)c(CO)c3)c2)cc1C | 76 °C
4 | COC(=O)C1=C(C)NC(C)=C(S(C)(=O)=O)C1c1ccccc1C(F)(F)F (stereo unspecified) | 160 to 163 °C
5 | O=C(O)C(=O)c1ccc(SCCOc2ccc3ccccc3c2)cc1 | 161 to 162 °C
6 | O=c1ncc(Br)cn1CC=CCl | 114 to 116 °C
7 | COC(Cc1ccc(OCCc2nc(-c3ccccc3)oc2C)c2ccsc12)C(=O)O (stereo unspecified) | 129 to 131 °C
8 | COCC#Cc1cc(F)c2ncc(C(=O)NCc3ccc(Cl)cc3)c(O)c2c1 | 222 to 224 °C
9 | CC1(C)O[C@H]2[C@H](OCc3ccccc3)O[C@H](C(N)=O)[C@H]2O1 | 78 °C
10 | COc1cc2nc(Cn3cnc4c(N)ncnc43)n(-c3ccccc3Cl)c(=O)c2cc1OC | 282 to 283 °C
11 | O=C(O)c1ccccc1C(=O)NCCc1cccnc1 | 183 to 185 °C
12 | O=C(O)c1ccnc2[nH]ccc12 | > 300 °C
13 | COC(c1ccc(Cl)c2nc3n(c12)CCCN3c1ccc(Cl)cc1Cl)C1CC1 (stereo unspecified) | 138 to 139 °C
14 | COc1cc2c(c3c1OC(C)(C)C3)C(c1ccccc1)=NC(COC(C)=O)C2 (stereo unspecified) | 168 to 169 °C
15 | Cc1[nH]cnc1CCc1ccc2nc(N)sc2c1 | 191 to 193 °C
16 | COC(=O)Cc1nc(-c2ccc3ccccc3c2)oc1C | 86 to 87 °C
17 | CNC(=O)c1ccc(N2CCNCC2)cc1 | 154 to 156 °C
18 | CC(=O)NCCC1=C(C(C)C)Cc2cnc3c(c21)CCO3 | 164 to 166 °C
19 | CCCCOc1ccc(NS(=O)(=O)c2ccc(N3CCNC3=O)cc2)cc1 | 223 to 225 °C
20 | Cc1cc(C)n(CC(C)C)c(=O)c1C#N | 126 to 128 °C
21 | C=CCN1C(=O)C(C)N(c2ccc(OCc3ccccc3)cc2)C1=S (stereo unspecified) | 88 to 90 °C
22 | CC(C)(C)OC(=O)N1C[C@@H]2Cc3cc4ccccc4n3C[C@@H]2C1 (relative stereo) | 143 to 144 °C
23 | Cc1cc(C)c(N=c2cc(-c3ccc(O)c(O)c3)n(C)c(=O)n2C)c(C)c1 | 222 to 225 °C
24 | CCCCc1cc(OCc2ccc(-c3ccccc3C(=O)O)cc2)c2ccccc2n1 | 145 °C
25 | CCCSC1=NSc2cc(C)cnc2N1Cc1ccc(-c2ccccc2C#N)cc1 | 190 to 192 °C
26 | CC1(C)OC(C=CC=Cc2ccc(Cl)cc2)=CC1=O | 95 to 96 °C

Row | SMILES | melting point
27 | CCOC(=O)c1c(N)c(Br)cc2c1OCO2 | 81 to 83 °C
28 | COc1cccc(-c2nn(C)c3ccsc23)c1 | 99 to 101 °C
29 | COc1cc(C=C(C(C)=O)C(C)=O)cc(OC)c1OC | 83 to 86 °C
30 | CC(=O)c1ccc(NC(=O)C(N)c2ccc3c(c2)C(C)(C)CCC3(C)C)cc1 (stereo unspecified) | 138 to 139 °C
31 | CC1(C)CCC(C)(C)c2cc(C(=O)OCc3ccc(C(=O)OCc4ccccc4)cc3)ccc21 | 78 to 79 °C
32 | CCn1nc(-c2ccc(F)cc2)c(C(C)=O)c(Nc2cccc3cccnc23)c1=O | 154 °C
33 | COc1ccc(NC(=O)/C=C/c2ccc(N)c(F)c2)cc1N | 170 to 172 °C
34 | O=C(CCCl)N(c1ccccc1)c1ccccc1 | 93 to 94 °C
35 | O=C1c2cc(F)ccc2-n2c1nc1ccc(F)cc1c2=O | 295 to 296 °C
36 | O=C(CCCN1CCCCC1)c1ccc2oc3ccc(C(=O)CCCN4CCCCC4)cc3c2c1 | 70 to 71 °C
37 | CCCCCS(=O)(=O)NC(=O)/C=C/c1cc(OCCCC)nn1Cc1ccc(C(F)(F)F)cc1Cl | 130 to 132 °C
38 | CC12CCC3(CC1CCC1C2CCC2(C)C(N)C(O)CC12)OCCO3 (stereo unspecified) | 254 to 258 °C
39 | CC(=O)/C=C/Sc1ccc2ccccc2c1 | 62 to 64 °C
40 | CC(=O)c1ccc(S(N)(=O)=O)c(Cl)c1 | 146 to 148 °C
41 | CN(C(=O)N(CF)CF)c1nc2ccccc2s1 | 131 to 134 °C
42 | Cc1nc(O)c([N+](=O)[O-])c(N2CCc3ccccc3CC2)n1 | > 200 °C
43 | Cc1c(C(=O)N[C@H](C)[C@](O)(Cn2cncn2)c2ccc(F)cc2F)cnn1-c1ccc(Br)cc1 | 153 to 154 °C
44 | O=C(NCCn1cc(Cn2ccnc2)c2ccccc21)Nc1ccccc1 | 198 to 199 °C
45 | N=c1sc2cc(OC(F)(F)F)ccc2n1CCS(=O)c1ccccc1 (racemic) | 210 °C
46 | COC(=O)c1ccc(F)c([N+](=O)[O-])c1 | 58.5 to 59.5 °C
47 | Cc1ccc(C(=O)NCCCn2ccnc2)c(Nc2ccc3cn[nH]c3c2)n1 | 203 to 205 °C
48 | N#Cc1ccc(C=CCc2ccc(C#N)cc2)cc1 | 98 to 105 °C
49 | Cn1cc(-c2cccc(N3Cc4cc(C5CC5)sc4C3=O)c2CO)cc(Nc2ccncn2)c1=O | 140 to 141 °C
50 | CN(CCCCCCCCNC(=O)NCCSCc1csc(NC(=N)N)n1)CCC(c1ccc(Cl)cc1)c1ccccn1 (stereo unspecified) | 135 to 140 °C
51 | CCOC(=O)CNc1c(Br)cc(Br)cc1Br | 81 to 82 °C
